PubChem BioAssay AID330 (DTP/NCI, 2004)
Several values for one entry are separate records, joined by “and”; a condition that tells them apart may be missing. Equal values may be shown once. Inconclusive results and toxic doses are left out. Rule for the calls: active = survival T/C of 150% or more; inactive = T/C below 125% in these data.

Tested on: P388 leukemia ip, CD2F1 mice, survival T/C
Test: NCI In Vivo Anticancer Drug Screen. Data for tumor model P388 Leukemia (intraperitoneal) in CD2F1 (CDF1) mice
Details: endpoint: median survival time, higher = longer survival
Procedure, shortened: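 Mice carrying the transplanted tumor received test compound or vehicle. Survival was recorded in each group, and the value is the treated-group measurement divided by that of the vehicle-treated control group.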

[1] = dose: 60.0 mg/kg/injection, schedule: Q01DX005 (ip), vehicle: saline with Tween-80
[2] = dose: 120.0 mg/kg/injection, schedule: Q01DX005 (ip), vehicle: saline with Tween-80
[3] = dose: 240.0 mg/kg/injection, schedule: Q01DX005 (ip), vehicle: saline with Tween-80
[4] = dose: 50.0 mg/kg/injection, schedule: Q01DX005 (ip), vehicle: saline
[5] = dose: 100.0 mg/kg/injection, schedule: Q01DX005 (ip), vehicle: saline
[6] = dose: 25.0 mg/kg/injection, schedule: Q01DX009 (ip), vehicle: saline with Tween-80
[7] = dose: 50.0 mg/kg/injection, schedule: Q01DX009 (ip), vehicle: saline with Tween-80
[8] = dose: 100.0 mg/kg/injection, schedule: Q01DX009 (ip), vehicle: saline with Tween-80
[9] = dose: 25.0 mg/kg/injection, schedule: Q01DX009 (ip), vehicle: Klucel (hydroxypropylcellulose) (HPC)
[10] = dose: 50.0 mg/kg/injection, schedule: Q01DX009 (ip), vehicle: Klucel (hydroxypropylcellulose) (HPC)
[11] = dose: 50.0 mg/kg/injection, schedule: Q01DX005 (ip), vehicle: saline with Tween-80
[12] = dose: 100.0 mg/kg/injection, schedule: Q01DX005 (ip), vehicle: saline with Tween-80
[13] = dose: 100.0 mg/kg/injection, schedule: Q04DX003 (ip), vehicle: Klucel (hydroxypropylcellulose) (HPC)
[14] = dose: 200.0 mg/kg/injection, schedule: Q04DX003 (ip), vehicle: Klucel (hydroxypropylcellulose) (HPC)
[15] = dose: 100.0 mg/kg/injection, schedule: Q01DX009 (ip), vehicle: Klucel (hydroxypropylcellulose) (HPC)
[16] = dose: 200.0 mg/kg/injection, schedule: Q01DX009 (ip), vehicle: Klucel (hydroxypropylcellulose) (HPC)

Measured: T/C

COc1cc2c(cc1OC)-c1c(C)c3ccc(OC)c(NCCO)c3c[n+]1CC2
inactive: dose: 50.0 mg/kg/injection, schedule: Q04DX003 (ip), vehicle: water 102 % of control | dose: 100.0 mg/kg/injection, schedule: Q04DX003 (ip), vehicle: water 107 % of control

Cc1cccc(O)c1O
inactive: dose: 100.0 mg/kg/injection, schedule: Q01DX009 (ip), vehicle: saline 102 % of control | dose: 200.0 mg/kg/injection, schedule: Q01DX009 (ip), vehicle: saline 121 % of control and 122 % of control

COc1cc(CC(NC(C)=O)C(=O)O)cc(OC)c1OC (configuration not stated)
inactive: dose: 100.0 mg/kg/injection, schedule: Q01DX001 (ip), vehicle: saline 105 % of control | dose: 200.0 mg/kg/injection, schedule: Q01DX001 (ip), vehicle: saline 99 % of control | dose: 400.0 mg/kg/injection, schedule: Q01DX001 (ip), vehicle: saline 100 % of control

C=C(C)C(O)C#CCO[Si](c1ccccc1)(c1ccccc1)C(C)(C)C (configuration not stated)
inactive: [1] 95 % of control | [2] 97 % of control | [3] 98 % of control

CCN(CC)CCN1C(=O)c2cccc3cc(OC)cc(c23)C1=O
inactive: dose: 25.0 mg/kg/injection, schedule: Q01DX005 (ip), vehicle: saline 104 % of control | [4] 100 % of control | [5] 107 % of control

CCCn1cnc2c(=S)nc[nH]c21
inactive: [6] 86 % of control | [7] 90 % of control | [8] 109 % of control

CC1(CCl)CC1(Cl)Cl (configuration not stated)
inactive: [4] 103 % of control | [5] 103 % of control | dose: 200.0 mg/kg/injection, schedule: Q01DX005 (ip), vehicle: saline 104 % of control

N#CCc1noc2ccccc12
inactive: dose: 12.5 mg/kg/injection, schedule: Q01DX009 (ip), vehicle: saline with Tween-80 103 % of control | [6] 109 % of control

Nc1nc(Sc2ccc([N+](=O)[O-])c3nonc23)c2ncn(C3OC(CO)C(O)C3O)c2n1 (configuration not stated)
inactive: dose: 3.12 mg/kg/injection, schedule: Q01DX009 (ip), vehicle: Klucel (hydroxypropylcellulose) (HPC) 113 % of control | dose: 6.25 mg/kg/injection, schedule: Q01DX009 (ip), vehicle: Klucel (hydroxypropylcellulose) (HPC) 113 % of control | [9] 122 % of control | [10] 102 % of control and 118 % of control

OC(ON=C1CCCCC1)c1ccc2c(c1)OCO2 (configuration not stated)
inactive: [11] 96 % of control | [12] 103 % of control | dose: 200.0 mg/kg/injection, schedule: Q01DX005 (ip), vehicle: saline with Tween-80 107 % of control

O=C(O)COC(=O)c1ccc([N+](=O)[O-])cc1
inactive: [13] 99 % of control | [14] 108 % of control | dose: 400.0 mg/kg/injection, schedule: Q04DX003 (ip), vehicle: Klucel (hydroxypropylcellulose) (HPC) 100 % of control

Nc1nc2c(nc(OCc3ccccc3)n2C2OC(CO)C(O)C2O)c(=O)n1N (configuration not stated)
inactive: [1] 104 % of control | [2] 96 % of control | [3] 100 % of control

CCCCCCCCCOCC(=O)OC
inactive: [7] 105 % of control | [8] 106 % of control | dose: 200.0 mg/kg/injection, schedule: Q01DX009 (ip), vehicle: saline with Tween-80 101 % of control

C=C1CCC(OC(C)=O)C2(C)C(OC(C)=O)CC3OC3(C)C2C(OC(C)=O)C2C(C)C(=O)OC2C1Cl (configuration not stated)
inactive: [9] 99 % of control | [10] 97 % of control | [15] 96 % of control | [16] 93 % of control

O=C(c1ccccc1)C1(Cl)CCCCC1
inactive: dose: 25.0 mg/kg/injection, schedule: Q01DX009 (ip), vehicle: saline + alcohol 99 % of control | dose: 50.0 mg/kg/injection, schedule: Q01DX009 (ip), vehicle: saline + Tween-80 + alcohol 108 % of control | dose: 50.0 mg/kg/injection, schedule: Q01DX009 (ip), vehicle: saline + alcohol 91 % of control | dose: 100.0 mg/kg/injection, schedule: Q01DX009 (ip), vehicle: saline + Tween-80 + alcohol 104 % of control | dose: 100.0 mg/kg/injection, schedule: Q01DX009 (ip), vehicle: saline + alcohol 100 % of control | dose: 200.0 mg/kg/injection, schedule: Q01DX009 (ip), vehicle: saline + Tween-80 + alcohol 99 % of control | dose: 200.0 mg/kg/injection, schedule: Q01DX009 (ip), vehicle: saline + alcohol 92 % of control | dose: 400.0 mg/kg/injection, schedule: Q01DX009 (ip), vehicle: saline + Tween-80 + alcohol 112 % of control

Cc1nc2scc(-c3ccccc3)n2c(=O)c1CN1CCCCC1
inactive: dose: 37.5 mg/kg/injection, schedule: Q04DX002 (ip), vehicle: Klucel (hydroxypropylcellulose) (HPC) 103 % of control | dose: 75.0 mg/kg/injection, schedule: Q04DX002 (ip), vehicle: Klucel (hydroxypropylcellulose) (HPC) 106 % of control | dose: 150.0 mg/kg/injection, schedule: Q04DX002 (ip), vehicle: Klucel (hydroxypropylcellulose) (HPC) 95 % of control

CCOC(=O)C1=CC(C(=O)OCC)=C2C=CC=C3C=CC=C1N32
inactive: [1] 93 % of control | [2] 90 % of control | [3] 88 % of control

CC(=O)N1CCc2ccccc2C1C1NCCc2ccccc21 (configuration not stated)
inactive: [13] 95 % of control | [14] 94 % of control

CCc1nc2c(Br)c3oc(CC)nc3c(C)c2o1
inactive: dose: 60.0 mg/kg/injection, schedule: Q01DX005 (ip), vehicle: Klucel (hydroxypropylcellulose) (HPC) 97 % of control | dose: 120.0 mg/kg/injection, schedule: Q01DX005 (ip), vehicle: Klucel (hydroxypropylcellulose) (HPC) 95 % of control | dose: 240.0 mg/kg/injection, schedule: Q01DX005 (ip), vehicle: Klucel (hydroxypropylcellulose) (HPC) 91 % of control

CC(=O)OC(c1ccccc1)N(Cc1ccccc1)N=O (configuration not stated)
inactive: dose: 12.5 mg/kg/injection, schedule: Q01DX009 (ip), vehicle: distilled water + Tween-80 111 % of control | dose: 25.0 mg/kg/injection, schedule: Q01DX009 (ip), vehicle: distilled water + Tween-80 111 % of control | dose: 50.0 mg/kg/injection, schedule: Q01DX009 (ip), vehicle: distilled water + Tween-80 118 % of control | dose: 100.0 mg/kg/injection, schedule: Q01DX009 (ip), vehicle: distilled water + Tween-80 117 % of control | dose: 200.0 mg/kg/injection, schedule: Q01DX009 (ip), vehicle: distilled water + Tween-80 119 % of control

C1CSCCSCCCSCCSCCCSCCSC1
inactive: dose: 100.0 mg/kg/injection, schedule: Q01DX001 (ip), vehicle: Klucel (hydroxypropylcellulose) (HPC) 97 % of control | dose: 200.0 mg/kg/injection, schedule: Q01DX001 (ip), vehicle: Klucel (hydroxypropylcellulose) (HPC) 105 % of control | dose: 400.0 mg/kg/injection, schedule: Q01DX001 (ip), vehicle: Klucel (hydroxypropylcellulose) (HPC) 97 % of control

COCCOc1cccc2c1C(=O)c1ccccc1C2=O
inactive: [11] 102 % of control | [12] 91 % of control

O=[N+]([O-])c1ccc2c(c1)Cc1cc(N(CCCl)CCCl)ccc1-2
inactive: [10] 94 % of control | [15] 92 % of control | [16] 94 % of control

NC(=O)NN=C(C1CC1)C1CC1
inactive: dose: 3.12 mg/kg/injection, schedule: Q01DX005 (ip), vehicle: Klucel (hydroxypropylcellulose) (HPC) 115 % of control | dose: 6.25 mg/kg/injection, schedule: Q01DX005 (ip), vehicle: Klucel (hydroxypropylcellulose) (HPC) 98 % of control | dose: 12.5 mg/kg/injection, schedule: Q01DX005 (ip), vehicle: Klucel (hydroxypropylcellulose) (HPC) 104 % of control | dose: 50.0 mg/kg/injection, schedule: Q01DX005 (ip), vehicle: Klucel (hydroxypropylcellulose) (HPC) 99 % of control
